Columns and labels:
Cbl-b [1] = target: T1, Cbl-b (Homo sapiens (Human), UniProt Q13191); assay: Cbl-b displacement assay (Cbl-b inhibition assay), TR-FRET probe displacement, Biological Example 1; format: binding; conditions: 0.5 nM Cbl-b final concentration (High); read-out: Cbl-b activity IC50 (High)
Summary of the method: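 TR-FRET displacement of a BODIPY FL-labelled inhibitor probe (150 nM, ~EC40) from biotin-Avitag truncated Cbl-b, detected via 2 nM streptavidin-Tb, 1 h, room temperature. Compound in 1% DMSO pre-incubated 1 h with Cbl-b at 0.5 nM (High) or 0.125 nM (Low) in 20 mM HEPES pH 7.5, 150 mM NaCl, 0.5 mM TCEP.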

[2] = tested on: primary human total T-cells; assay: Primary human total T-cell activation: CD25 surface staining, Biological Example 9; format: cell-based; conditions: 48 hours, fold change over baseline; for fold induction at 1 µM: inhibitor 1 μM
Cbl-b [3] = target: T1, Cbl-b; assay: Cbl-b displacement assay (Cbl-b inhibition assay), Biological Example 8; format: binding; conditions: 0.125 nM Cbl-b final concentration (Low); Table 8-1; read-out: Cbl-b IC50 (Low)
Summary of the method: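 Biotinylated Avitag-Cbl-b (residues 36-427) at 0.5 nM ("High") or 0.125 nM ("Low") final was preincubated 1 h at room temperature with compound (1% DMSO) in 20 mM HEPES pH 7.5, 150 mM NaCl, 0.01% Triton X-100, 0.01% BSA, 0.5 mM TCEP. Then 150 nM BODIPY FL inhibitor probe (~EC40) plus 2 nM streptavidin-terbium, 1 h; TR-FRET 520/620 read, IC50 derived.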

TC-1 cells = assay: Compound 8 with HPV16 vaccine in TC-1 syngeneic mouse model, Biological Example 16; format: in vivo; conditions: TC-1 tumor-bearing mice
Protocol: Mice were implanted with 50,000 TC-1 cells/mouse subcutaneously into the right flank (at Day Zero (D0)). Thirteen days later (D13), when tumors measured approximately 50-100 mm^3, mice from appropriate groups (10 mice per group) were injected with HPV16 vaccine (s.c., total 2 doses, at D13 and Day 20 (D20)). […] Mice were euthanized when tumor exceeded 1500-2000 mm^3, according to IACUC guidelines. Survival was compared using GraphPad Prism using log-rank (Mantel-Cox) test. **=p<0.005 of treatment vs. Vehicle+Vaccine control group at Day 61.
TC-1 cells were derived by stable transfection of mouse lung epithelial cells with human papillomavirus strain 16 (HPV16) early proteins 6 and 7 (E6 and E7) and activated h-ras oncogene. Cells were obtained from Dr. T-C Wu (Johns Hopkins University). (Lin K Y, Guarnieri F G, Staveley-O'Carroll K F, Levitsky H I, August J T, Pardoll D M, et al. Treatment of established tumors with a novel vaccine that enhances major histocompatibility class II presentation of tumor antigen. Cancer Res 1996; 56:21-6).
The HPV16 vaccine was prepared as follows: The CTL epitope from HPV16 E749-57 (9 amino acid (aa) peptide, […], 100 μg/mouse, SEQ ID NO: 2) was mixed with synthetic T helper epitope PADRE (13 aa peptide, aK-Cha-[…]a, SEQ ID NO: 3, where “a” is D alanine and Cha is L-cyclohexylalanine, 20 ug/mouse) and with QuilA adjuvant (20 ug/mouse).

[4] = tested on: primary human total T-cells; assay: Primary human total T-cell activation: CD25 surface staining, Biological Example 13; format: cell-based; conditions: 48 hours, fold change over baseline; for fold induction at 1 µM: inhibitor 1 μM
[5] = tested on: primary human total T-cells; assay: Primary human total T-cell activation: IL-2 secretion, Biological Example 13; format: cell-based; conditions: 48 hours, fold change over baseline; for fold induction at 1 µM: inhibitor 1 μM
[6] = tested on: primary human total T-cells; assay: Primary human total T-cell activation: CD25 surface staining, Biological Example 2; format: cell-based; conditions: 48 hours, fold change over baseline; for fold induction at 1 µM: inhibitor 1 μM
[7] = tested on: primary human total T-cells; assay: Primary human total T-cell activation: IL-2 secretion, Biological Example 2; format: cell-based; conditions: 48 hours, fold change over baseline; for fold induction at 1 µM: inhibitor 1 μM
[8] = anti-CD3/anti-CD28 co-stimulation, inhibitor 0.3 μM, Table 13-1
[9] = anti-CD3 alone, inhibitor 3 μM, Table 13-1
[10] = anti-CD3/anti-CD28 co-stimulation, inhibitor 0.3 μM

T1 sequence (Q13191 36-427): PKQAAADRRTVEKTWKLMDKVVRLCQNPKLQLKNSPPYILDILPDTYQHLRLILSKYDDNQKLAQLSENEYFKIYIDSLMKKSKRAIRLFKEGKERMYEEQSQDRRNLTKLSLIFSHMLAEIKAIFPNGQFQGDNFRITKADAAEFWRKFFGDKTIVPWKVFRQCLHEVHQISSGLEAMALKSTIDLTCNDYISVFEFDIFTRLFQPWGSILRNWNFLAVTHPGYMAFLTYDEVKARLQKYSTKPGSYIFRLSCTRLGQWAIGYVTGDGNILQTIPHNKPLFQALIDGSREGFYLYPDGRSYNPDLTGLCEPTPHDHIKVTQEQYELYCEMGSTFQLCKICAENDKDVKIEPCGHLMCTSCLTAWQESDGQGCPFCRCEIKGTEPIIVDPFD

C[C@@H]1CN(Cc2cc3c(c(C(F)(F)F)c2)CN(c2cccc(C4(Cc5nncn5C)COC4)c2)C3=O)CCC1(F)F [Compound 8, (R)-6-((4,4-difluoro-3-methylpiperidin-1-yl)methyl)-2-(3-(3-((4-methyl-4H-1,2,4-triazol-3-yl)methyl)oxetan-3-yl)phenyl)-4-(trifluoromethyl)isoindolin-1-one]
IC50 (Cbl-b [1]): 5.1 to 100 nM
fold induction at 0.3 µM ([2]; anti-CD3/anti-CD28 co-stimulation, inhibitor 0.3 μM, Table 9-1): > 1.39
fold induction at 1 µM ([2]; anti-CD3/anti-CD28 co-stimulation, Table 9-1, read-out: CD25 staining CD3/CD28 1 μM): > 1.39
fold induction at 1 µM ([2]; anti-CD3 alone, Table 9-1, read-out: CD25 staining CD3 1 μM): > 1.14
fold induction at 3 µM ([2]; anti-CD3 alone, inhibitor 3 μM, Table 9-1): > 1.14
IC50 (Cbl-b [3]): < 1 nM
tumor growth (TC-1 cells; Compound 8 orally D13 to D35, HPV16 vaccine s.c. D13 and D20): significant slowdown of tumor progression
survival (TC-1 cells; Compound 8 orally D13 to D35 with HPV16 vaccine s.c. D13 and D20, vs. Vehicle+Vaccine): prolonged survival
fold induction at 0.3 µM [4, 8]: > 1.39
fold induction at 1 µM ([4]; anti-CD3/anti-CD28 co-stimulation, Table 13-1, read-out: CD25 staining CD3/CD28 1 μM): > 1.39
fold induction at 1 µM ([4]; anti-CD3 alone, Table 13-1, read-out: CD25 staining CD3 1 μM): > 1.14
fold induction at 3 µM [4, 9]: > 1.14
fold induction at 0.3 µM [5, 8]: > 15
fold induction at 1 µM ([5]; anti-CD3/anti-CD28 co-stimulation, Table 13-1, read-out: IL-2 secretion CD3/CD28 1 μM): > 15
fold induction at 1 µM ([5]; anti-CD3 alone, Table 13-1, read-out: IL-2 secretion CD3 1 μM): > 0.66
fold induction at 3 µM [5, 9]: > 0.66
fold induction at 0.3 µM [6, 10]: 1.25 to 1.39
fold induction at 1 µM ([6]; anti-CD3/anti-CD28 co-stimulation, read-out: CD25 staining CD3/CD28 1 μM): 1.25 to 1.39
fold induction at 1 µM ([6]; anti-CD3 alone, read-out: CD25 staining CD3 1 μM): > 1.14
fold induction at 3 µM ([6]; anti-CD3 alone, inhibitor 3 μM): > 1.14
fold induction at 0.3 µM [7, 10]: > 15
fold induction at 1 µM ([7]; anti-CD3/anti-CD28 co-stimulation, read-out: IL-2 secretion CD3/CD28 1 μM): > 15
fold induction at 1 µM ([7]; anti-CD3 alone, read-out: IL-2 secretion CD3 1 μM): 0.34 to 0.66
fold induction at 3 µM ([7]; anti-CD3 alone, inhibitor 3 μM): 0.34 to 0.66
